Patent US9308244B2, “Combination therapy using active immunotherapy” (immatics Biotechnologies GmbH, priority 2007, dated 2016)
Like-named read-outs stand apart in the source and are kept apart here.

Key:
[1] = tested on: C57BL/6 T cells; test: Mouse mixed lymphocyte reaction (CFSE-labeled C57BL/6 spleen cells vs irradiated BALB/c splenocytes); assay type: cell-based; details: sorafenib: at concentration near the steady-state plasma level of treated patients
Protocol: CFSE-labeled spleen cells from C57BL/6 (H2-b) mice were co-cultured with irradiated splenocytes from BALB/c (H2-d) mice, resulting in the strong allogenic response and proliferation of the C57BL/6 T cells against H2-d MHC molecules. The proliferation of the T cells results in a diminished CFSE staining of the divided cells. Percentage of divided cells and their number of divisions can be analyzed by flow cytometry.
Spleen cells were prepared from 1 C57BL/6 mouse and 1 BALB/c mouse (Harlan Winkelmann GmbH, Borchen, Germany). BALB/c cells were irradiated with 33 Gy. Effectors (C57BL/6) were adjusted to 20 Mio cells/ml. A 2 mM 5(6)-Carboxyfluorescindiacetate-N-succinimidylester (CFSE, Fluka, Buchs, Switzerland) solution in PBS was freshly prepared from a 10 mM DMSO stock solution. The cell suspension was mixed 1:1 with the CFSE solution. After incubation at 37° C. for 4 min, reaction was stopped by addition of fetal calf serum (Biochrom, Berlin, Germany), and free CFSE was washed out. 2×10^5 stimulator cells (BALB/c) were plated into cavities of a 96-well round-bottom plate. 1×10^5 or 2×10^5 CFSE-labeled effector cells and tyrosine kinase inhibitors at two different concentrations were added. Appropriate positive and negative controls were included. All cultures were in 200 μl T-cell medium with 0.1% (v/v) DMSO for 5 or 7 days without further medium change. Thereafter, cells were stained with fluorescently labelled anti-CD4-PerCP and anti-CD8-FITC antibodies (both BD Biosciences, Heidelberg, Germany) and analyzed by flow cytometry.
The experiment described above was repeated with the exception that a 96-well flat-bottom plate was used for mixed lymphocyte reactions (MLRs), a syngenic control with irradiated C57BL/6 cells was included, more concentrations of inhibitors were assessed, and all groups were analyzed in triplicates.
During cultivation, half of the medium was replaced with fresh appropriate medium supplemented with final concentrations of tyrosine kinase inhibitors every day, and proliferation was analyzed at day 7 only. Additionally cells were stained for H2-Kb to clearly identify effector cells in a further dimension.

[2] = tested on: HLA-A*02+ PBMCs (CD4+ and CD8+ effector cells); details: HLA-mismatched target cells, seven days, increasing TKI concentrations
Protocol: Two fresh buffy coat (HLA-A*02+ and HLA-A*02−) were obtained from the Katharinenhospital Stuttgart. PBMCs were isolated by standard density gradient isolation and incubated overnight in T-cell medium (TCM) for human in vitro priming as in WP03 #4. Ca2+ and Mg2+ free PBS (Cambrex) washed HLA-A*02+ PBMCs were labeled at 1×10^7 cells/ml with 1 μM CFSE (Fluka, Buchs, Germany) at 37° C. for 4 minutes. Labeling was stopped by adding the same volume heat inactivated FCS (Invitrogen) and labeled cells were washed in TCM. Irradiation of target or feeder cells, if indicated, was performed at 33 Gy using a 1000 Elite gammacell (MDS Nordion, Ottawa, Canada). Stock solutions of sorafenib tosylate and sunitinib malate were prepared in DMSO (Merck, Darmstadt, Germany) and frozen aliquoted at −80° C. Mixed lymphocyte reactions were performed by coculturing 2×10^5 CFSE labeled effector plus 2×10^5 irradiated target cells as indicated per well of 96 well round bottom plates in 200 μl TCM in the presence of indicated concentrations of sorafenib, sunitinib or DMSO at 37° C. and 5% CO2 (day 1). On day 4, 100 μl supernatant was removed and 100 μl TCM supplemented with the original concentration of TKIs was added. […] Cells were washed, fixed in PFEA containing 1% formaldehyde (Fluka) and analyzed on a FACSCalibur (BD). […]

[3] = tested on: OVA-001 specific CD8+ T-cells; assay type: in vivo, C57BL/6 mice; details: continuous treatment, OVA-001 immunized
[4] = Protocol: Female C57BL/6 mice (20-25 g, Harlan Winkelmann GmbH, Borchen, Germany) were used for all experiments described in this section. Animals were kept in the animal facility of the Dept. of Immunology at the University of Tuebingen. Animals were cared for by trained animal keepers and health status of animals was supervised by the veterinaries of the University of Tübingen. Feeding with drug was also performed in part by the local animal keepers after special training. All animals were supplied with water and food ad libitum. The described experiments were performed according to procedure no. IM1/06 approved by the Regierungsprasidium Tuebingen.
A liquid, viscous vehicle composed of 30% (w/v) Cremophor EL (Sigma, Deisenhofen, Germany), 30% (w/v) PEG 400 (Sigma, Deisenhofen, Germany), 10% ethanol p.a., 10% glucose was used. Sunitinib and sorafenib were suspended in vehicle according to the planned dosages in a way that […] body weight had to be applied to all mice, according to approx. 50 μl of suspension. Feasible aliquots were prepared from suspensions and from vehicle and stored until use at −20° C. in the dark. Thawed substance was stored at 4° C. and used within the next three days. Animals were weighed before start of treatment and thereafter weekly. The deduced dosage was applied daily using a 1 ml syringe with gavage into the backward cavity of the mouth of the animal without anesthesia. Drug delivery into blood plasma was controlled as described in example 1.
1) Immunization under continuous treatment with tyrosine kinase inhibitors. Pretreatment phase was two weeks (see FIG. 5A). […]
3) The experimental design was identical to a) Beside negative and positive control groups, groups treated with 60 mg/kg body weight sorafenib, and 20 and 40 mg/kg body weight sunitinib were included (6 mice per group). For spleen cells, CD4, Tregs, CD8 cells, and B cells were assessed, for PBMCs CD4, CD8, B cells and Tregs were analyzed.

[5] = HPLC quantification of TKI plasma levels in mouse models; assay type: in vivo; details: oral dosing
Protocol: The proteins were precipitated with 40 μl 100% acetonitril (Acros, Geel, Belgium), centrifuged and filtered through a 0.2 μm PVDF filter. 10 μl was directly injected to the HPLC system.
The HPLC system consisted of a Binary HPLC pump (Shimadzu LC10aVP), a Shimadzu SIL-10aVP autosampler, a Shimadzu CTO-10asVP column oven and a Shimadzu SPD10aVP detector. Data acquisition and analysis was performed using the Shimadzu Class-VP 7.3 software. Chromatographic separation was carried out on a reverse phase C18 column (Reprosil Pur ODS-3μ, 60×2 mm). To protect the analytical column a guard column has been used (Reprosil Pur ODS-5μ, 10×2 mm). Eluent A consisted of water (LCMS grade, Acros, Geel, Belgium), modified by 0.1% formic acid (Merck, Darmstadt, Germany) and eluent B was 80% acetonitril (Acros, Geel, Belgium) with 0.1% formic acid (Merck, Darmstadt, Germany).
The following gradient was used: 5 min 25% eluent B, 15 min 62.5% eluent B, 6 min 80% eluent B and 5 min 80% eluent B. The temperature of the autosampler was kept at 4° C. The temperature of the column was maintained at 30° C. The detection wavelength was set at 400 nm, the injection volume was 10 μl. The column was equilibrated with the mobile phase at a flow rate 0.5 ml/min.
For Sorafenib analysis, 10 μl of 50% acetonitril (Acros, Geel, Belgium) was added to 50 serum or medium in 0.5 ml PCR tubes and mixed for 10 seconds. […]

[6] = tested on: A498 tumor cells; details: A498, 24 h; 13 μM sorafenib or 250 nM sunitinib; normal medium control = 100%

SMILES: CCN(CC)CCNC(=O)c1c(C)[nH]c(/C=C2\C(=O)Nc3ccc(F)cc32)c1C [Sunitinib]
- Drug-related toxicity for cells in mixed lymphocyte reactions (summary) [1]: no drug-related toxicity was observed
- Proliferation of CD8+ and CD4+ effector cells [2]: No effect
- OVA-001 specific CD8+ T-cells, mean ([3]; 20 mg/kg bw, n=12): 3.47%
- OVA-001 specific CD8+ T-cells, mean ([3]; 40 mg/kg bw, n=6): 2.73%
- OVA-001 specific CD8+ T-cells, mean ([3]; 80 mg/kg bw, n=2): 0.51%
- Deaths ([4]; 80 mg/kg sunitinib, experiment one): 2 out of 6
- Inflamed lesions of injections sites ([4]; mouse, in vivo): frequently observed
- Bioavailability / plasma levels at the used doses [5]: confirmed to reach plasma levels shown by others to be effective in tumor growth inhibition
- % Expression relative to control: ADFP [6]: 87%
- % Expression relative to control: APOL1 [6]: 62%
- % Expression relative to control: CCND1 [6]: 93%
- % Expression relative to control: GUCY1A3 [6]: 57%
- % Expression relative to control: HLA-A [6]: 93%
- % Expression relative to control: HLA-B [6]: 76%
- % Expression relative to control: HLA-C [6]: 87%
- % Expression relative to control: MET [6]: 41%
- % Expression relative to control: MMP7 [6]: 31%
- % Expression relative to control: MUC1 [6]: 54%
- % Expression relative to control: PSMB8 [6]: 87%
- % Expression relative to control: PSMB9 [6]: 132%
- % Expression relative to control: TAP1 [6]: 123%
